In patent US20240299505A1, “COMPOSITION FOR IMPROVING, PREVENTING OR TREATING INFLAMMATORY BOWEL DISEASE COMPRISING NAMPT-DERIVED PEPTIDE AS ACTIVE INGREDIENT” (Industry-University Cooperation Foundation Hanyang …, priority 2023, published 2024):

Experiments:
[1] = system: NLRP3 inflammasome signal 1; experiment: NLRP3 inflammasome signal 1 in LPS-treated BMDMs (IB, FACS ROS, cytokine ELISA); type: cell-based, mice; conditions: for production of cytokines (NF-κB-induced): ELISA of supernatants; for generation of ROS: FACS
Procedure: (§1) FIG. 4 confirms that NAMPT-derived peptides inhibit activation of signal 1 and 2 of NLRP3. Specifically, (A-C) BMDMs were stimulated with LPS for 4 hours and pretreated with rNAMPT for 1 hour (A, B) or 18 hours (C). (A) WCLs were used for IB with αIkB-α, αP-IkB-α, or αActin. (B) FACS analysis for H2O2 (probe for 2′,7′-dichlorofluorescin diacetate) or O^2− (probe for dihydroethidium). Quantitative analysis (upper) of mean fluorescence intensities of H2O2 and O^2− and NADPH oxidase activity (lower), (C) Culture supernatants (SN) were harvested and analyzed for cytokine ELISA. (D, E) LPS-primed BMDMs were treated with rNAMPT for 1 hour and then activated with ATP for 30 minutes. (D) ELISA for IL-1β and IL-18. (E) IB in SN with αIL-1β p17, αIL-18 p18, or αCasp1 p10 and IB of WCL with αPro-IL-1β, αPro-IL-18, αPro-Casp1, or αActin. […] Data come from three independent experiments that yielded similar results. (B-D) Data are provided as mean±SD of three experiments. Significance difference compared to LPS+PBS (*p<0.05; **p<0.01; ***p<0.001);
(§2) FIG. 5 illustrates results confirming an effect of TAT-NAMPT or NAMPT peptide on inflammation. Specifically, (A) BMDMs were stimulated with LPS (100 ng/ml) for 18 hours and pretreated with rNAMPT for 1 hour. Culture supernatants were collected and analyzed for cytokine ELISA. (B) LPS-primed BMDMs were treated with rNAMPT for 1 hour and then activated with nigericin for 30 minutes and DSS for 24 hours. ELISA for IL-1B and IL-18. […] The shown data are the mean±SD of three experiments. Significant difference comparing LPS+PBS (*p<0.05; **p<0.01; ***p<0.001);
Primary bone marrow-derived macrophages (BMDMs) were harvested from mice and cultured in DMEM in the presence of M-CSF (R&D Systems, 416-ML) for 3 to 5 days. HEK293T cells (ATCC-11268; American Type Culture Collection) were cultured in DMEM (Gibco) containing 10% FBS (Gibco), nonessential amino acids, sodium pyruvate, streptomycin (100 μg/mL) and penicillin G (100 IU/mL).
Polypeptides were separated by SDS-polyacrylamide gel electrophoresis and then transferred to a PVDF membrane for immunoblotting (IB) (Bio-Rad, Hercules, CA, USA). For immunodetection, specific antibodies were required, and Chemiluminescence (ECL; Millipore, MA, USA) was used to visualize an antibody bound to a target. In addition, a Vilber chemiluminescence analyzer was used to detect the antibody (Fusion SL3; Vilber Lourmat, Colégien, France).
Flow cytometry was used to quantify intracellular ROS levels. The cells were cultured in a serum-free medium and stained with 2 μM dihydroethidium (DHE for O^2−; Calbiochem) or 1 μM 2′,7′-dichlorodihydrofluorescein diacetate (H2DCFDA for H2O2; Calbiochem) as a redox-sensitive dye. mAbs were incubated at 4° C. for 20 to 30 minutes to determine cell surface protein expression, and cells were fixed using a Cytofix/Cytoperm Solution (BD Biosciences), and in a specific case, mAb incubation was performed to detect intracellular proteins. The used mAb clones were the following: ITGA6 (GoH3, BD Pharmingen™) and ITGB1 (HMβ1-1, BD Pharmingen™). The cells were washed completely and quickly with pulse spinning before being analyzed in a FACS Calibur (BD Biosciences, San Jose, CA, USA). CellQuest software (BD Biosciences) was used to visualize the data, and FlowJo software was used to analyze the data (Tree Star, Ash-land, OR, USA).
TNF-α, IL-6, IL-1β and IL-18 levels were measured in cell culture supernatants and mouse serum using the BD OptEIA ELISA system (BD Pharmingen). All experiments were performed according to the manufacturer's protocol.
To determine the effect of NAMPT peptides related to signal 1 for the NLRP3 inflammasome in macrophages, LPS-treated BMDMs were exposed to different concentrations of NAMPT peptides (aa 57-65, aa 52-56, or aa 52-65). […] Thus, the TAT-NAMPT peptides were less likely to inhibit the interaction of eNAMPT with TLR4 or CYBB.

[2] = system: NLRP3 inflammasome signal 2; experiment: NLRP3 inflammasome signal 2 in LPS-primed BMDMs activated with ATP, nigericin or DSS (ELISA, IB); type: cell-based, mice
Procedure: as §1, §2
Primary bone marrow-derived macrophages (BMDMs) were harvested from mice and cultured in DMEM in the presence of M-CSF (R&D Systems, 416-ML) for 3 to 5 days. […]
TNF-α, IL-6, IL-1β and IL-18 levels were measured in cell culture supernatants and mouse serum using the BD OptEIA ELISA system (BD Pharmingen). […]

TLR4 = TLR4 (Homo sapiens, UniProt O00206); experiment: Fluorescence binding titration of labeled TLR4 with unlabeled NAMPT; conditions: fluorescently labeled TLR4 titrated with unlabeled NAMPT, curve fit; read-out: Kd of NAMPT-TLR4 interaction
CYBB = target: T1, CYBB (Homo sapiens, UniProt P04839); experiment: Fluorescence binding titration of labeled CYBB with unlabeled NAMPT; conditions: fluorescently labeled CYBB titrated with unlabeled NAMPT, curve fit; read-out: Kd of NAMPT-CYBB interaction
T1 sequence (P04839 1-570): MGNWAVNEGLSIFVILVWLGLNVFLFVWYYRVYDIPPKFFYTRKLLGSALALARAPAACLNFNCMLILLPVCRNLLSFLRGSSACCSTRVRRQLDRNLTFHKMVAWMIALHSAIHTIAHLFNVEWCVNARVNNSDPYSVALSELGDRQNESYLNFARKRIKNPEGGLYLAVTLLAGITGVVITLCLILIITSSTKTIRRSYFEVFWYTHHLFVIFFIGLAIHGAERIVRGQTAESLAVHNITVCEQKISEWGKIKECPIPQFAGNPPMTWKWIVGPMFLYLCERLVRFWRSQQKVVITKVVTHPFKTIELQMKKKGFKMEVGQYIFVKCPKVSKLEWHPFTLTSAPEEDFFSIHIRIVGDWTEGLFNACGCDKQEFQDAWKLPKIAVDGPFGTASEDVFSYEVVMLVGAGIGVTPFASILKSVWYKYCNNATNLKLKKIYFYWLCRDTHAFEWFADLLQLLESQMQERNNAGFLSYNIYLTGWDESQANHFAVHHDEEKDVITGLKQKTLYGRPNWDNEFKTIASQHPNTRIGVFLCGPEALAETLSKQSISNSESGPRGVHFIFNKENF

NAMPT-CYBB binding = target: T2, NAMPT-CYBB binding (Homo sapiens, UniProt P04839); experiment: Co-immunoprecipitation of Myc-NAMPT with V5-CYBB in 293T cells treated with TAT-NAMPT peptides; type: cell-based; conditions: Myc-NAMPT and V5-CYBB, peptide 6 hours, 5 μM or 1, 5, 10 μM
T2 construct: The full-length (FL) CYBB and mutant plasmids were constructed as follows; expressed in transfected cells; host or cells: HEK293T (293T)
T2 sequence (P04839 1-570): T1 sequence (P04839 1-570)
Procedure: (§3) FIG. 3 illustrates experimental design and results for identifying an essential region of NAMPT for binding to TLR4 and CYBB. Specifically, (A) Schematic diagram (upper) of the structures of NAMPT and TLR4. 293T cells were transfected with GST-NAMPT or its mutants and Flag-TLR4. GST pulldown was performed with 293T cells and then IB was performed using αFlag. WCLs were used for IB using αGST, αFlag, or αActin (lower, left in A). 293T cells were transfected with Flag-TLR4 or its mutants and Myc-NAMPT. The 293T cells were used for IP with αMyc, followed by IB with αFlag. WCLs were used for IB using αMyc, αFlag or αActin (lower, right in A). (B) 293T cells were transfected with Myc-NAMPT and Flag-TLR4 and treated with NAMPT peptide or its mutants for 6 hours (5 μM, left; 1, 5, 10 μM, right). The 293T cells were used for IP with αFlag, followed by IB with αMyc. WCLs were used for IB using αMyc, αFlag, or αActin. (C) Schematic diagram (upper) of the structures of CYBB. 293T cells were transfected with GST-NAMPT or its mutants and V5-CYBB (lower, left in C). The 293T cells were transfected with GST-CYBB or its mutants and Myc-NAMPT (lower, right in C). The 293T cells were subjected to GST pull-down, followed by IB with αV5 or αMyc. WCLs were used for IB using αGST, αMyc, a V5 or αActin. […]

NAMPT-TLR4 binding = experiment: Co-immunoprecipitation of Myc-NAMPT with Flag-TLR4 in 293T cells treated with TAT-NAMPT peptides; type: cell-based; conditions: Myc-NAMPT and Flag-TLR4, peptide 6 hours, 5 μM or 1, 5, 10 μM
Procedure: as §3

Chain of TLR4 (O00206 24-839, species assumed): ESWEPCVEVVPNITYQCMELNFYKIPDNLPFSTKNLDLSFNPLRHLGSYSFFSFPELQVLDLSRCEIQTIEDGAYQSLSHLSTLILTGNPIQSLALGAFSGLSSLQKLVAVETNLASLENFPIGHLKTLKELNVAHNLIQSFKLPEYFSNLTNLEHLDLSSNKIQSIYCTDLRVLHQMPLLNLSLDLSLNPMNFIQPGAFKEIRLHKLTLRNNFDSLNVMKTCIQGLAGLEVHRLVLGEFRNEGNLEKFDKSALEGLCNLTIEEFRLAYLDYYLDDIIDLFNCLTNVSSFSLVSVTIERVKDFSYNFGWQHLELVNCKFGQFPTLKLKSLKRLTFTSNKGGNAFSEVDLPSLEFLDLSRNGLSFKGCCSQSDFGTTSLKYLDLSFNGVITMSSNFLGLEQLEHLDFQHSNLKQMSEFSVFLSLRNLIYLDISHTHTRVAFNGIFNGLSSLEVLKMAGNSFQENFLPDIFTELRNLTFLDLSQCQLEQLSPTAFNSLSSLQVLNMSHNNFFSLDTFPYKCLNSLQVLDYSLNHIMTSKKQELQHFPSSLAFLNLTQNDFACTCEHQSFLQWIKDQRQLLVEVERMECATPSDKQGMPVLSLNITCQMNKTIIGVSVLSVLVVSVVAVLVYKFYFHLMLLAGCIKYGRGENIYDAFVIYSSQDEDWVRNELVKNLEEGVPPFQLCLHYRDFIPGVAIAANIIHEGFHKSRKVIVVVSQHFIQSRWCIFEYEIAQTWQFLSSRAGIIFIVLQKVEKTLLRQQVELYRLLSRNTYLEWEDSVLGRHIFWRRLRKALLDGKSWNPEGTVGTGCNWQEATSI

Substance	activation of NF-κB [1]	production of cytokines (NF-κB-induced) [1]	generation of ROS [1]	other results
NAMPT peptides aa 52-56: peptide of amino acids 52 to 56 of NAMPT (SEQ ID NO: 1), binds CYBB (VKYEE; listed as Homo sapiens)	partially inhibited	partially inhibited	partially inhibited	
NAMPT peptides aa 52-65: peptide of amino acids 52 to 65 of NAMPT (SEQ ID NO: 1), binds TLR4 and CYBB (VKYEETVFYGLQYI; listed as Homo sapiens)		markedly inhibited	markedly inhibited	action of eNAMPT on NLRP3 inflammasome signal 2 ([2]; FIG. 4D lower, FIG. 4E right): specifically inhibited the action of eNAMPT; ATP-induced caspase-1 cleavage ([2]; LPS-primed BMDMs, ATP 30 minutes): efficiently inhibited; maturation of IL-1β and IL-18 ([2]; LPS-primed BMDMs, ATP, nigericin or DSS stimulation): efficiently inhibited
NAMPT peptides aa 57-65: peptide of amino acids 57 to 65 of NAMPT (SEQ ID NO: 1), binds TLR4 (TVFYGLQYI; listed as Homo sapiens)	partially inhibited	partially inhibited	partially inhibited	
Nicotinamide phosphoribosyl transferase [NAMPT]				Kd (TLR4): 219 nM; Kd (CYBB): 896 nM
TAT-NAMPT (aa 40-69) (GRKKRRQRRRPQREKKTENSKLRKVKYEETVFYGLQYILNKY)				binding of NAMPT to CYBB (IP/IB) (NAMPT-CYBB binding): bound to CYBB; binding of NAMPT to TLR4 (IP/IB) (NAMPT-TLR4 binding): reduced the binding of NAMPT to TLR4
